Assay [1] concerns circulating suPAR. Put plainly: Circulating suPAR in PodoNet cohort by medication. The class given is in vivo, human. As to conditions: medication at time of blood sampling. The text has this: In contrast to FSGS-CT, where patients were randomly assigned to either CSA or MMF therapy, treatment in PodoNet was at the discretion of the attending physicians. For the purpose of this analysis, patients were grouped according to the medication they received at the time of blood sampling: MMF or a calcineurin inhibitor. […] Overall, there was no significant difference between the two groups based on their demographic features or laboratory measurements (e.g., proteinuria, serum albumin, eGFR, and serum creatinine).
PodoNet is a consortium for clinical, genetic, and experimental study of steroid-resistant nephrotic syndrome (SRNS). The inclusion criteria are children (age 0-18 years old) with SRNS based on management protocols at the participating medical centers and adults with familial SRNS. Patients who were included into this study had biopsy proven FSGS (n=94). The treatment of subjects was clinically determined and managed by their attending physician.
(§1) The measurement of serum suPAR was performed using a Quantikine human uPAR immunoassay kit (R&D Systems).

Assay [2] deals with circulating suPAR. The assay can be described thus: Serum suPAR in FSGS-CT cohort by treatment arm. As to conditions: for change in serum suPAR level from baseline to 26 weeks: FSGS-CT patients, MMF arm is MMF/dexamethasone. The class given is in vivo, human. How it is done: (§2) To explore the effect of treatment on suPAR levels in the circulation, samples were analyzed in patients who were randomly assigned to either the CSA or MMF/dexamethasone arm of the trial. At baseline, there was no difference between the two treatment arms in age at sampling, age at disease onset, gender, race, proteinuria, serum albumin, serum creatinine, or eGFR (FIG. 7) as well as circulating suPAR levels by univariate analysis. […] When examining the alteration from baseline to 26 weeks, suPAR level was increased in CSA arm, but decreased in MMF arm and the changes in suPAR levels between the two arms were significant (P<0.05).
FSGS-CT is a randomized controlled study that compared the efficacy of cyclosporine (CSA) to the combination of mycophenolate mofetil (MMF) and dexamethasone. Key inclusion criteria were age 2-40 years, eGFR>40 ml/min per 1.73 m^2, biopsy-proven FSGS, and resistance to corticosteroid therapy. Exclusion criteria included secondary FSGS, obesity, or prior experimental therapy. All subjects received lisinopril or losartan in those who were intolerant of angiotensin converting enzyme inhibitor. Subjects were treated for 52 weeks. The primary outcome was normalization of proteinuria defined as a urine protein:creatinine ratio (Up/c)<0.2 in a first morning urine sample after 52 weeks of active treatment with the study medication(s). The main secondary outcome was based on the level of proteinuria at 78 weeks, six months after discontinuation of the study drugs. Subjects were seen 11 times during the treatment period and, at each visit, blood pressure was measured and blood and urine were obtained to determine serum creatinine, eGFR, albumin, cholesterol concentration, and proteinuria (Gipson et al., Kidney Int'l 80:868-878, 2011). The serum samples collected at baseline (W01) and 26 weeks (W26) on treatment (n=35 in each arm) were retrieved from the NIDDK Biorepository for suPAR measurement.
as §1

A short description of assay [3]: Proteinuria (Up/c) and serum creatinine in FSGS-CT cohort by treatment arm. In kind it is in vivo, human. How it is done: as §2
FSGS-CT is a randomized controlled study that compared the efficacy of cyclosporine (CSA) to the combination of mycophenolate mofetil (MMF) and dexamethasone. Key inclusion criteria were age 2-40 years, eGFR>40 ml/min per 1.73 m^2, biopsy-proven FSGS, and resistance to corticosteroid therapy. Exclusion criteria included secondary FSGS, obesity, or prior experimental therapy. […] Subjects were seen 11 times during the treatment period and, at each visit, blood pressure was measured and blood and urine were obtained to determine serum creatinine, eGFR, albumin, cholesterol concentration, and proteinuria (Gipson et al., Kidney Int'l 80:868-878, 2011). […]

For assay [4] the following is noted: cited from earlier work.
The nature of assay [5]: Retrospective study of recurrent or de novo FSGS after renal transplantation: renal parameters pre-post treatment. As to conditions: for Mean Foot Process Effacement, Mean Post ± SD / Proteinuria, Mean Post ± SD / Serum Creatinine, Mean Post ± SD: post-treatment; for Mean Foot Process Effacement, Mean Pre ± SD / Proteinuria, Mean Pre ± SD / Serum Creatinine, Mean Pre ± SD: pre-treatment. The class given is in vivo, human. As to the method:
Treatment with plasmapheresis (PXP) started at the time of FSGS recurrence or de novo manifesting by the onset or worsening of proteinuria. Subjects completed a median of 21 plasmapheresis sessions (IQR: 10-23). Twelve subjects were refractory to plasmapheresis and received adjunctive rituximab infusion. Eight (32%) subjects had complete remission, and an additional 12 (48%) individuals achieved partial remission. With treatment (Table 5), the overall mean serum creatinine improved from 3.1 mg/dl±2.3 mg/dl to 2.1 mg/dl±1.2 mg/dl (P=0.07), and the mean eGFR improved from 35.6 ml/min±19.4 ml/min to 46.0 ml/min±24.3 ml/min per 1.73 m^2 (P=0.01). Additionally, among responders the serum creatinine declined further from 3.1 mg/dl±2.5 mg/dl to 1.9 mg/dl±0.6 mg/dl (P=0.48).
We conducted a retrospective observational study of all adult renal transplant recipients who underwent renal transplantation between Jan. 1, 2003 to Dec. 31, 2011, and developed recurrent or de novo FSGS after kidney transplantation at a single tertiary hospital. We identified 105 renal transplant recipients aged 18 years and older. Ninety-three had native kidney biopsy-proven FSGS; 12 having a probable FSGS diagnosis. Twenty-five individuals developed de novo FSGS (n=4) and recurrent FSGS (n=21) following renal transplantation. Recurrent FSGS was defined by the presence of proteinuria (more than 1 g/24 hours) in individuals who were anuric prior to renal transplantation ([…]) or worsening proteinuria among those who were not anuric prior to renal transplantation (n=15). De novo FSGS was defined as the new onset of proteinuria following renal transplantation in a recipient whose primary cause of ESRD was not attributed to FSGS. The diagnosis was confirmed by the presence of podocyte foot process effacement on the allograft biopsy obtained prior to or within 14 days of treatment commencement. The Johns Hopkins University School of Medicine Institutional Review Board approved this study.
Socio-demographic and clinical data were abstracted from patient medical records using double data entry from the time of renal transplantation to three years following renal transplantation or the last available clinical follow-up. Donor clinical characteristics collected included donor vital status, relatedness to the recipient, and ABO-compatibility with recipient. Recipient clinical characteristics included age at FSGS diagnosis, primary cause of ESRD, number of prior renal transplantations, duration among those receiving dialysis, serum creatinine and proteinuria defined by urine protein-to-creatinine ratio. Glomerular filtration rate (eGFR) was estimated using the CKD-Epi equation which adjusts for age, gender, and race (Levey et al., Ann. Intern. Med. 150:604-612, 2009). Recipients were treated with plasmapheresis. Those with persistently significant proteinuria were also given one or two rituximab infusions. Complete response was defined by a decrease in proteinuria to below 1 g/g upon completion of the treatment course and/or on the last available quantification of proteinuria. Partial response to therapy was defined as a decline in proteinuria at the end of treatment by 50% from the peak proteinuria level, but with proteinuria remaining 1 g/g or greater at the end of treatment. Renal histopathology was assessed by a renal pathologist using light microscopy, immunofluorescence and electron microscopy. The degree of podocyte foot process effacement was based upon biopsy reports as well as secondary assessments of the electron microscopy by a second renal pathologist blinded to the original biopsy report and the recipient's outcome. These two assessments were then averaged to obtain the mean podocyte foot process effacement, which was categorized as <25% (mild), 25%-74% (moderate), and 75% or greater (severe). Baseline electron microscopy results were obtained from renal biopsies performed prior or shortly after the initiation of therapy. […]

Take `COc1c(C)c2c(c(O)c1C/C=C(\C)CCC(=O)OCCN1CCOCC1)C(=O)OC2` [MMF, mycophenolate mofetil]: the “circulating suPAR level, patients who received the medication versus those who did not” value in the assay with circulating suPAR [1] is “significantly lower”. For the same compound, the “change in serum suPAR level from baseline to 26 weeks” value in the assay on circulating suPAR [2] is listed as “decreased”; with circulating suPAR [2] (listed as mycophenolate mofetil), “decreased significantly”. Besides, the “serum suPAR level after treatment” value in the assay with circulating suPAR [2] (FSGS-CT, MMF-treated patients, mean ± SEM (±264), P<0.01) turned out to be 4113 pg/mL. The “serum suPAR level before treatment” value in the assay with circulating suPAR [2] (FSGS-CT, MMF-treated patients, mean ± SEM (±292)) amounted to 5064 pg/mL. The “decrease in serum creatinine from baseline to 26 weeks, MMF arm compared to CSA arm” value in assay [3] (P<0.001) was “significantly greater decrease”. Moreover, in assay [3] (P<0.05), the “decrease in Up/c from baseline to 26 weeks, MMF arm compared to CSA arm” value was “significantly greater decrease”.
For the compound `O=C[C@H](O)[C@@H](O)[C@@H](O)[C@H](O)CO` [galactose], the proteinuria outcome in assay [4] (dialysis-dependent patient (Savin et al., 2008)) is listed as “no improvement of proteinuria”. For the same compound, the nephrotic syndrome outcome in assay [4] (oral galactose, patient resistant to corticosteroids, immunosuppression and plasmapheresis (De Smet et al., 2009)) is reported as “remission for more than two years”.
Take “PXP + rituximab: plasmapheresis (PXP) with adjunctive rituximab infusion in subjects refractory to plasmapheresis”: in assay [5] (overall, n = 12), the “Proteinuria, Most recent” value was found to be 7 ± 12.7 g/g; the “Proteinuria, Peak” value is 12.5 ± 12.7 g/g; the “Proteinuria, Mean Post ± SD” value is given as 6.6 ± 12.5 g/g; the “Serum Creatinine, Mean Post ± SD” value was 2.1 ± 0.88 mg/dL. In assay [5] (overall, n = 12), the “Proteinuria, Mean Pre ± SD” value turned out to be 4.4 ± 3.1 g/g and the “Serum Creatinine, Mean Pre ± SD” value is 3 ± 2.7 mg/dL. For the same compound, in assay [5] (overall, n = 10), the “Mean Foot Process Effacement, Mean Post ± SD” value was determined as 21 ± 27% and the “Mean Foot Process Effacement, Mean Pre ± SD” value is given as 49 ± 32%. In assay [5] (responders, n = 9), the “Proteinuria, Last” value amounted to 1.7 ± 1.2 g/g; the “Proteinuria, Peak” value was found to be 7.6 ± 4.9 g/g; the “Proteinuria, Mean Post ± SD” value was 1.9 ± 1.4 g/g; the “Proteinuria, Mean Pre ± SD” value stood at 4.1 ± 3.4 g/g. Moreover, in assay [5] (responders, n = 7), the “Mean Foot Process Effacement, Mean Post ± SD” value came out at 14 ± 14% and the “Mean Foot Process Effacement, Mean Pre ± SD” value turned out to be 34 ± 27%. For the same compound, in assay [5] (responders, n = 12), the “Serum Creatinine, Mean Post ± SD” value turned out to be 2.1 ± 0.7 mg/dL and the “Serum Creatinine, Mean Pre ± SD” value came out at 3 ± 2.96 mg/dL.
